The target of test [1] is T1, Sodium/glucose cotransporter 2 (Homo sapiens, UniProt P31639).
T1 sequence (P31639 whole entry): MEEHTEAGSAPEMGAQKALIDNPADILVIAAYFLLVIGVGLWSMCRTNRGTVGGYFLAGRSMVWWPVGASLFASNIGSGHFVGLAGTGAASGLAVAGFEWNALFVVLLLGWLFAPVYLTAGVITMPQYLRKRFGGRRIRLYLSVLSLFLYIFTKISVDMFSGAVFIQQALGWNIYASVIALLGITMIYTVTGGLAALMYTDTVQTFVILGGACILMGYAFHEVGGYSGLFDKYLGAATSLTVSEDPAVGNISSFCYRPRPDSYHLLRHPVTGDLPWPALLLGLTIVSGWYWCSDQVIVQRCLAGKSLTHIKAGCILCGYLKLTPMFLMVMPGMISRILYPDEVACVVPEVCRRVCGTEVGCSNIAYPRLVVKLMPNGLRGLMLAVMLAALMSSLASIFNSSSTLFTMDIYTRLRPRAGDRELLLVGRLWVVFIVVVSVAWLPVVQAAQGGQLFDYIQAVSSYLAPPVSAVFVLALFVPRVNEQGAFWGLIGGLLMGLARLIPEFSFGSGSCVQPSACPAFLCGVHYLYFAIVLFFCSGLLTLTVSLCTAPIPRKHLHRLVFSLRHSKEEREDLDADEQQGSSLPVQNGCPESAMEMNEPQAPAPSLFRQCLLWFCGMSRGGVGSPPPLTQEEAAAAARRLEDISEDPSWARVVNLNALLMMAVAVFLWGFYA
The test is described as follows: Inhibitory Activity Assay. As for the experimental part:
(§1) The following method was used to determine the inhibitory activity of the compounds of the present invention on SGLT1 and SGLT2. The experimental method is summarized as follows:SGLT1 and SGLT2 transiently transferred HEK293 cells were seeded in a 96-well plate. The density of the cells was 1-1.5×104. The cells were cultured at 37° C. and 5% CO2 for 48 hours, and then washed twice with 200 μL sodium-free buffer. 90 μL sodium-containing buffer of the test compound at different concentrations was added to the well. Each test compound was repeated in three wells for each concentration. The cells were cultured at 37° C. for 15 minutes, then 10 μL (in number 0.1 μCi [14C]) Methyl α-D-glucopyranoside was added to each well of the 96-well plate. The cells were further cultured at 37° C. for 2 hours, then the supernatant was discarded. The cells were washed twice with pre-chilled sodium-free buffer and then dissolved in 100 μL NaOH (200 mM). 100 μL scintillation solution was added, and mixed well. Scintiloscope was used for the quantitative detection of 14C.

In test [2] the target is T2, Sodium/glucose cotransporter 1 (Homo sapiens, UniProt P13866).
T2 sequence (P13866 whole entry): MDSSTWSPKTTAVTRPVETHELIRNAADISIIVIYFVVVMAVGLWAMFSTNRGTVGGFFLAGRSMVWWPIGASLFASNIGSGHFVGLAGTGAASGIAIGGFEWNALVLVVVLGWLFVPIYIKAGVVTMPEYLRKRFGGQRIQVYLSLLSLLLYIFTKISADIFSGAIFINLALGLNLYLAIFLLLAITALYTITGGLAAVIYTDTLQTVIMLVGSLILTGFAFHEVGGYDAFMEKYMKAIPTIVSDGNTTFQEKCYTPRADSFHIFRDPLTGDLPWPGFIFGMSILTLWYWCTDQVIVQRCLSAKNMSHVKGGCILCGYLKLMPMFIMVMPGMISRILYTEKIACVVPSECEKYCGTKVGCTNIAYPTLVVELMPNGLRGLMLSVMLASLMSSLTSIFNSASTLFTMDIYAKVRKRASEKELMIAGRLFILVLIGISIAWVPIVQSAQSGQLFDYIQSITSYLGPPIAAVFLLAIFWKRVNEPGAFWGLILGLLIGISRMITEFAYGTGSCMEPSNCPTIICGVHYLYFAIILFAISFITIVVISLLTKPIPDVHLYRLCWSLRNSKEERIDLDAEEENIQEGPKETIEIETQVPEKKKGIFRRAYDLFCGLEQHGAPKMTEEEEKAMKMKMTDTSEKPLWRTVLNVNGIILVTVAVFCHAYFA
The test is described as follows: Inhibitory Activity Assay. As for the experimental part:
as §1

Usually IC50 stands for the concentration needed to halve the response being measured. Low values mean higher potency, high ones lower potency. `OC[C@H]1S[C@@H](c2ccc(C3CC3)c(Cc3ccc4c(c3)OCCO4)c2)[C@H](O)[C@@H](O)[C@@H]1O` [US10011627, 5]: the IC50 stood at 4.3 nM in test [1] and 301 nM in test [2].
With `Cc1cc(O)c([C@@H]2S[C@H](CO)[C@@H](O)[C@H](O)[C@H]2O)cc1Cc1ccc2c(c1)OCCO2` [US10011627, 6], the results for the half-inhibitory concentration (IC50) in test [1] and in test [2] were 2.59 nM and 99.9 nM, respectively.
